Counter-ions that a name gives are not always drawn.
Columns and labels:
[1] = Overall comparison with Nomifensine in the pharmacological tests; format: in vivo; conditions: for Activity compared with Nomifensine (in words) / Therapeutical index (in words): all tests
Description: The pharmacological activity of the compounds of the present invention is determined by the following tests:
(§1) The acute toxicity data are determined in mice. Tests 2-6 are also carried out in mice. The doses are expressed in micromole/kg. The therapeutical index (TI) is the LD/ED quotient.
(§2) Tests 7-10 are carried out in cats and rats, the doses are expressed in micromole/kg.

[2] = test system: spontaneous motility; assay: Test 3: spontaneous motility; format: in vivo; conditions: for TI (Test 3), LD/ED quotient: LD50 / ED of Test 3; for minimal effective dose: Mus musculus, ip, read-out: ED, lowest i.p. dose which still decreases the spontaneous motility (Test 3, -)
Description: 3. Lowest i.p. dose which still increases or decreases the spontaneous motility of the mice.
as §1
In Test 3 "+=motility increase" and "-=motility decrease."

[3] = test system: blood pressure and nictitating membrane; assay: Test 7: blood pressure and nictitating membrane effect; format: in vivo; conditions: Felis catus, iv, cats; ">" = inactive in the given dose; read-out: Lowest i.v. dose which still increases the blood pressure and nictitating membrane effect (Test 7)
Description: as §2
(§3) Tests 2, 8, 9 and 10 are suitable for the evaluation of the dopaminerg stimulating effect of the test compounds (potential anti-parkinson agent). Tests 4, 5, 6 and 7 give information about the catecholamine-uptake inhibiting effect (potential antidepressive activity).

[4] = test system: catalepsy induced by Haloperidol; assay: Test 2: inhibition of haloperidol-induced catalepsy; format: in vivo; conditions: for TI (Test 2), LD/ED quotient: LD50 / ED of Test 2; for ED50: Mus musculus, sc, read-out: ED, s.c. dose which inhibits the catalepsy induced by Haloperidol in 50% of the mice (Test 2)
Description: (§4) 2. S.c. dose which inhibits the catalepsy induced by a 13 umole/kg dose of Haloperidol, in 50% of the mice.
as §1, §3

[5] = test system: catalepsy induced by Haloperidol / tetrabenazine; assay: Comparison of anti-haloperidol (Test 2) and anti-tetrabenazine (Test 4) activity; format: in vivo, mice; conditions: for Quotient of the ED values of Columns 2 and 4: ED Test 2 (haloperidol) : ED Test 4 (tetrabenazine); for Antidepressant versus antiparkinson profile (in words): from quotient ED2:ED4
Description: as §4
(§5) 4. S.c. dose which inhibits the catalepsy induced by a 110 umole/kg dose of tetrabenazine, in 50% of the mice.
as §1
On comparing the dopaminerg type anti-haloperidol test and the anti-tetrabenazine activity being characteristic of the antidepressive effect the following can be stated:
The quotient of the ED values of Columns 2 and 4 is the highest for Compound I (55:13=4.2). […] The said quotient is high in the case of Nomifensine (1.6), Compound D (1.8), Compound E (2.7) and Compound F (1.7).

[6] = test system: catalepsy induced by tetrabenazine; assay: Test 4: inhibition of tetrabenazine-induced catalepsy; format: in vivo; conditions: for TI (Test 4), LD/ED quotient: LD50 / ED of Test 4; for ED50: Mus musculus, sc, read-out: ED, s.c. dose which inhibits the catalepsy induced by tetrabenazine in 50% of the mice (Test 4)
Description: as §5, §1, §3

[7] = test system: ptosis induced by tetrabenazine; assay: Test 5: inhibition of tetrabenazine-induced ptosis; format: in vivo; conditions: for TI (Test 5), LD/ED quotient: LD50 / ED of Test 5; for ED50: Mus musculus, sc, read-out: ED, s.c. dose which inhibits the ptosis induced by tetrabenazine in 50% of the mice (Test 5)
Description: 5. S.c. dose which inhibits the ptosis induced by a dose of 79 umole/kg of tetrabenazine, in 50% of the mice.
as §1, §3

[8] = test system: decrease of the rectal temperature caused by reserpine; assay: Test 6: reserpine-induced decrease of rectal temperature; format: in vivo; conditions: for TI (Test 6), LD/ED quotient: LD50 / ED of Test 6; for minimal effective dose: Mus musculus, sc, read-out: ED, lowest s.c. dose which still hinders the decrease of the rectal temperature caused by reserpine (Test 6)
Description: 6. The lowest s.c. dose which still hinders the decrease of the rectal temperature caused by the administration of a 1,6 umole/kg dose of reserpine.
as §1, §3

[9] = test system: stereotypy; assay: Test 8: induction of stereotypy; format: in vivo; conditions: Rattus norvegicus, sc, rats; ">" = inactive in the given dose; read-out: Lowest s.c. dose which still induces stereotypy (Test 8)
Description: 8. The lowest s.c. dose which still induces stereotypy, in rats.
as §2, §3

[10] = Acute toxicity, s.c., LD50; parameters: species or system mice; conditions: mouse, in vivo; for LD50 at 96 h: sc, mice, 96 hour observation
Description: as §1

[11] = test system: prolactine level; assay: Test 10: decrease of prolactine level in ovariectomised rats; format: in vivo; conditions: Rattus norvegicus, 96 h, after 4 days treatment with oestradiol 0.073 umole/kg, read-out: Dose which induces a significant decrease of the prolactine level (Test 10)
Description: 10. The dose which induces a significant decrease of the prolactine level after 4 days treatment with a dose of 0.073 umole/kg of oeastradiol, on three weeks earlier ovariectomised rats.
as §2, §3

Row | SMILES | Activity compared with Nomifensine (in words) [1] | TI (Test 3), LD/ED quotient [2] | minimal effective dose [2] | minimal effective dose [3] | TI (Test 2), LD/ED quotient [4] | ED50 [4] | Quotient of the ED values of Columns 2 and 4 [5] | TI (Test 4), LD/ED quotient [6] | ED50 [6] | TI (Test 5), LD/ED quotient [7] | ED50 [7] | TI (Test 6), LD/ED quotient [8] | minimal effective dose [8] | minimal effective dose [9] | LD50 at 96 h [10] | Therapeutical index relative to that of Nomifensine ([1]; various tests) | minimal effective dose [11] | Antidepressant versus antiparkinson profile (in words) [5] | Toxicity compared with Nomifensine (in words) [10] | Therapeutical index (in words) [1]
1 | CCNCC(=O)Nc1cccc2c1CN(C)CC2c1ccc(Cl)cc1 (centres unmarked) [Compound C, 8-ethylamino-acetyl-amino-4-p-chloro-phenyl-2-methyl-1,2,3,4-tetrahydroisoquinoline-maleate] | surpasses the activity of Nomifensine in three tests | 16 | 42 µmol/kg | 1.1 µmol/kg | 13 | 53 µmol/kg | 1,0 | 13 | 51 µmol/kg | 49 | 14 µmol/kg | 62 | 11 µmol/kg | 68 µmol/kg | 686 µmol/kg | – | – | – | – | –
2 | CCOC(=O)Nc1cccc2c1CN(C)CC2c1ccc(Cl)cc1 (centres unmarked) [Compound I, 8-ethoxycarbonylamino-4-p-chloro-phenyl-2-methyl-1,2,3,4-tetrahydroisoquinoline] | activity is higher than that of Nomifensine | 275 | 7.9 µmol/kg | 1.3 µmol/kg | 40 | 55 µmol/kg | 4,2 | 167 | 13 µmol/kg | 1360 | 1.6 µmol/kg | 84 | 26 µmol/kg | 21 µmol/kg | 2180 µmol/kg | 2-6,8 times higher | 26 µmol/kg | relatively a stronger antidepressant than an antiparkinsone agent | toxicity is much lower | –
3 | CCNCC(=O)Nc1cccc2c1CN(C)CC2c1ccc(C)cc1 (centres unmarked) [Compound H, 8-ethylamino-acetyl-amino-2-methyl-4-p-tolyl-1,2,3,4-tetrahydro-isoquinoline maleate] | – | 32 | 22 µmol/kg | 2.2 µmol/kg | 21 | 33 µmol/kg | 0,3 | 7 | 99 µmol/kg | 59 | 12 µmol/kg | 16 | 44 µmol/kg | 183 µmol/kg | 706 µmol/kg | – | – | – | – | good therapeutical index
4 | CCCCNCC(=O)Nc1cccc2c1CN(C)CC2c1ccc(C)cc1 (centres unmarked) [Compound G, 8-butylamino-acetyl-amino-2-methyl-4-p-tolyl-1,2,3,4-tetrahydro-isoquinoline-maleate] | very high activity | 66 | 10 µmol/kg | 2.1 µmol/kg | 23 | 29 µmol/kg | 0,4 | 9 | 71 µmol/kg | 133 | 5 µmol/kg | 32 | 21 µmol/kg | 108 µmol/kg | 664 µmol/kg | – | – | stronger anti-dopamine, anti-parkinsone activity | – | good therapeutical index
5 | CCCCNC(=O)Nc1cccc2c1CN(C)CC2c1ccc(Cl)cc1 (centres unmarked) [Compound E, 8-n-butyl-carbamoyl-amino-4-p-chloro-phenyl-2-methyl-1,2,3,4-tetrahydro-isoquinoline-maleate] | – | > 66 | 31 µmol/kg | 6.1 µmol/kg | > 8 | 246 µmol/kg | 2,7 | > 23 | 90 µmol/kg | > 66 | 31 µmol/kg | – | > 205 µmol/kg | 275 µmol/kg | > 2050 µmol/kg | – | 143 µmol/kg | – | – | –
